Results taken from ChEMBL document CHEMBL4390647, “Efficient click chemistry towards novel 1H-1,2,3-triazole-tethered 4H-chromene-d-glucose conjugates: Design, synthesis and evaluation of in vitro antibacterial, MRSA and antifungal activities” (Eur J Med Chem, 2019).
Values after ≈ are worked out from the molar mass of the structure shown.

Key:
Format in all cases: functional
[1] = Antioxidant activity assessed as DPPH radical scavenging activity measured after 30 mins by spectrophotometric method
Candida albicans [2] = assay: Antifungal activity against Candida albicans ATCC 1912 after 24 to 48 hrs by broth microdilution method
Aspergillus flavus = assay: Antifungal activity against Aspergillus flavus ATCC 64025 after 24 to 48 hrs by broth microdilution method
Candida albicans [3] = assay: Antifungal activity against Candida albicans ATCC 1905 after 24 to 48 hrs by broth microdilution method
Candida albicans [4] = assay: Antifungal activity against Candida albicans SUCC 2303 after 24 to 48 hrs by broth microdilution method
Candida albicans [5] = assay: Antifungal activity against Candida albicans SUCC 625 after 24 to 48 hrs by broth microdilution method

CCOC(=O)c1cc2ccc(OCc3cn(Cc4ccc([N+](=O)[O-])cc4)nn3)cc2oc1=O
IC50 [1]: 15 µg/mL (≈ 33.3 µM)

N#CC1=C(N)Oc2ccc3ccccc3c2C1c1ccccc1 (configuration not stated)
MIC (Candida albicans [2]): > 1 µg/mL
MIC (Aspergillus flavus): > 1 µg/mL
MIC (Candida albicans [3]): > 1 µg/mL
MIC (Candida albicans [4]): > 1 µg/mL
MIC (Candida albicans [5]): > 1 µg/mL

Cc1cc(C(C)(C)C)c(O)c(C(C)(C)C)c1 [BUTYLATED HYDROXYTOLUENE]
IC50 [1]: 16.47 µg/mL (≈ 74.7 µM)
